Source: US20110081362A1, “TREATMENT OF CANCER” (THE BRIGHAM AND WOMEN'S HOSPITAL, INC., priority 2008, published 2011)
Where a SMILES comes first, the peptide text is derived from it. The star is where a group is joined. Cbz = O=C(OCc1ccccc1)*

Assays:
Type in all cases: cell-based, human
[1] = test system: HCT116 Ras Mut and Ras WT cells
Experimental: For cell cycle analysis, cells were ethanol fixed and stained with PI and analyzed using a BD LSR II FACS analyzer (BD Bioscience). Data analysis was carried out with BD FACS Diva and FlowJo softwares. Cell cycle synchronization by double thymidine block was based on a previous protocol (Steegmaier et al., 2007). Briefly, cells were arrested with two rounds of 20-hour thymidine (2.5 mM) treatment approximately 12 hours apart and released into mitosis. […] For one-step arrest in G2/M or in prometaphase, cells were treated overnight with either RO-3306 (10 μM) or the Eg5 kinesin inhibitor monastrol (100 μM), respectively. For mitotic entry experiments, cells were synchronized in RO-3306 (10 uM) overnight prior to release. For mitotic release experiments, cells were released from overnight synchronization in RO-3306 (10 uM) into nocodazole ([…]) for 4 hours and mitotic cells were collected by mitotic shake-off. Cells were then release by washing out the nocodazole. For the analysis of lagging chromosomes and mitotic index by microscopy, cells seeded onto coverslips were arrested in mitosis with 100 μM monastrol for 16 hours. Cells were washed and released into fresh media and were fixed at ten minute intervals for two hours in PHEM buffer+2% formaldehyde+0.5% triton-X100. […] Independent triplicates with >100 cells per replicate were analyzed. […]

[2] = test system: DLD-1 PI3K Mut cells vs PI3K WT cells; assay: Competition assay, PI3K Mut vs PI3K WT cells; details: DLD-1 isogenic for the PI3K oncogene
[3] = test system: DLD-1 Ras Mut and Ras WT cells; assay: Cell cycle and mitotic stage analysis (FACS, phospho-H3 Ser10, microscopy); details: for G2/M arrest, Ras Mut vs Ras WT cells: synthetic lethal concentration of drug; for Prometaphase arrest of mitotic cells: DLD-1 Ras Mut vs Ras WT; for Completion of mitosis (mitotic exit) after nocodazole release: BI-2536 for 2 hours
Experimental: For cell cycle analysis, cells were ethanol fixed and stained with PI and analyzed using a BD LSR II FACS analyzer (BD Bioscience). Data analysis was carried out with BD FACS Diva and FlowJo softwares. Cell cycle synchronization by double thymidine block was based on a previous protocol (Steegmaier et al., 2007). Briefly, cells were arrested with two rounds of 20-hour thymidine (2.5 mM) treatment approximately 12 hours apart and released into mitosis. […] For one-step arrest in G2/M or in prometaphase, cells were treated overnight with either RO-3306 (10 μM) or the Eg5 kinesin inhibitor monastrol (100 μM), respectively. For mitotic entry experiments, cells were synchronized in RO-3306 (10 uM) overnight prior to release. For mitotic release experiments, cells were released from overnight synchronization in RO-3306 (10 uM) into nocodazole ([…]) for 4 hours and mitotic cells were collected by mitotic shake-off. Cells were then release by washing out the nocodazole. For the analysis of lagging chromosomes and mitotic index by microscopy, cells seeded onto coverslips were arrested in mitosis with 100 μM monastrol for 16 hours. Cells were washed and released into fresh media and were fixed at ten minute intervals for two hours in PHEM buffer+2% formaldehyde+0.5% triton-X100. Cells were immunostained with DAPI to visualized DNA and antibodies to phospho-histone H3 Ser10 (pH3S10) and to α-tubulin to identify mitotic cells at different stages. Independent triplicates with >100 cells per replicate were analyzed. For measuring mitotic index by FACS, cells were trypsinized, fixed with ethanol and stained with PI and pH3S10 antibody.

[4] = test system: DLD-1 Ras Mut cells vs DLD-1 Ras WT cells; assay: Competition assay, GFP-labeled Ras Mut vs Ras WT cells, FACS; details: for Viability/fitness of Ras Mut cells after transient treatment: DLD-1, 24 hours treatment, drug washed out, 3 additional days before FACS; for Fitness of Ras Mut cells relative to Ras WT cells (synthetic lethality with mutant Ras): DLD-1 isogenic pair, drug present for 4-5 days
Experimental: E. Schematic of the competition assay used to validate shRNAs from the primary screen. Ras Mut cells expressing GFP and Ras WT cells were mixed and co-infected with the same retroviral shRNA. The Mut to WT cell ratio at the end of the experiment is measured by FACS. The percentage of Ras Mut cells in the mixture infected with a candidate RSL shRNA was normalized against that of a control shRNA targeting firefly luciferase (FF) within the same experiment to generate a normalized fitness score for the Ras Mut cells. Variations of this assay are also used to test the effect of siRNAs and chemical inhibitors.
Next, a competition assay was devised to test the reproducibility of candidate RSL shRNAs from the primary screen (Torrance et al., 2001; Smogorzewska et al., 2007). Individual shRNAs were packaged into retroviruses and infected into a 50:50 mixture of GFP+ DLD-1 Ras Mut cells and GFP (colorless) DLD-1 Ras WT cells. The relative ratio of Ras Mut versus WT cells at ˜7 days post shRNA infection was analyzed by FACS and compared to that of a mixed population infected with a negative control shRNA targeting luciferase (FIG. 8E). […] To rule out cell-line specific effect of candidate RSL shRNAs, candidates were tested using the competition assay in a second isogenic pair of colorectal cancer cell lines: HCT116 KRAS WT/G13D and HCT116 KRAS WT/−, which were derived with a similar method as the DLD-1 isogenic pair (Shirasawa et al., 1993; Torrance et al., 2001).
The competition assay used to test candidate genes from the screen was modified from a previous protocol (Torrance et al., 2001; Smogorzewska et al., 2007) and was carried out in 96-well plates in independent triplicates. For this assay, 1,000 each of GFP-labeled Ras Mut and unlabeled Ras WT cells were seeded in each well. For retroviral shRNA infection, cells were infected at an MOI of 1-5, selected for 3 days with puromycin and propagated for an additional 4-5 days before analyzed by FACS. An shRNA targeting firefly luciferase (shRNA-FF) was used as the negative control. For siRNA transfection, cells were transfected with siGenome siRNAs (Dharmacon) using Lipofectamine RNAiMAX (InVitrogen) and analyzed by FACS 5-6 days post transfection An siRNA targeting luciferase (Luc) was used as the negative control. […] Untreated wells were used as negative controls. To obtain normalized fitness of Ras Mut cells that can be compared across experiments, the percentage of Ras Mut cells in each sample was normalized to that in the control samples of that experiment.

[5] = test system: HCT116 PI3K Mut cells vs PI3K WT cells; assay: Competition assay, PI3K Mut vs PI3K WT cells; details: HCT116 isogenic for the PI3K oncogene
[6] = test system: HCT116 Ras Mut cells vs HCT116 Ras WT cells; assay: Competition assay, GFP-labeled Ras Mut vs Ras WT cells, FACS; details: HCT116 isogenic pair; drug present for 4-5 days
Experimental: Next, a competition assay was devised to test the reproducibility of candidate RSL shRNAs from the primary screen (Torrance et al., 2001; Smogorzewska et al., 2007). Individual shRNAs were packaged into retroviruses and infected into a 50:50 mixture of GFP+ DLD-1 Ras Mut cells and GFP (colorless) DLD-1 Ras WT cells. The relative ratio of Ras Mut versus WT cells at ˜7 days post shRNA infection was analyzed by FACS and compared to that of a mixed population infected with a negative control shRNA targeting luciferase (FIG. 8E). […] Without wishing to be bound by theory, a possible cause for the higher false positive rate in the primary screen might due to the fact that for the synthetic lethal analysis the difference between two microarray datasets is extracted and coupled with the fact that the secondary assay is much shorter than the original discovery assay. To rule out cell-line specific effect of candidate RSL shRNAs, candidates were tested using the competition assay in a second isogenic pair of colorectal cancer cell lines: HCT116 KRAS WT/G13D and HCT116 KRAS WT/−, which were derived with a similar method as the DLD-1 isogenic pair (Shirasawa et al., 1993; Torrance et al., 2001).
The competition assay used to test candidate genes from the screen was modified from a previous protocol (Torrance et al., 2001; Smogorzewska et al., 2007) and was carried out in 96-well plates in independent triplicates. For this assay, 1,000 each of GFP-labeled Ras Mut and unlabeled Ras WT cells were seeded in each well. For retroviral shRNA infection, cells were infected at an MOI of 1-5, selected for 3 days with puromycin and propagated for an additional 4-5 days before analyzed by FACS. An shRNA targeting firefly luciferase (shRNA-FF) was used as the negative control. For siRNA transfection, cells were transfected with siGenome siRNAs (Dharmacon) using Lipofectamine RNAiMAX (InVitrogen) and analyzed by FACS 5-6 days post transfection An siRNA targeting luciferase (Luc) was used as the negative control. For drug treatment, cells were treated with drugs for 4-5 days prior to FACS analysis. Untreated wells were used as negative controls. To obtain normalized fitness of Ras Mut cells that can be compared across experiments, the percentage of Ras Mut cells in each sample was normalized to that in the control samples of that experiment.

DLD-1 Ras Mut cells = assay: CellTiter GLO cell viability assay; details: DLD-1 Ras Mut vs WT measured independently
Experimental: The DLD-1 and HCT116 isogenic cells were kind gifts from Dr. Bert Vogelstein (Johns Hopkins University School of Medicine) and were maintained in McCoy's 5A media supplemented with 10% FBS and antibiotics. For proliferation assays, 10,000 cells were seeded in each well of a 24-well plate and cell number was measured using CellTiterGLO (Promega). For adherent colony assays, 1000 cells were seeded in each well of a 6-well plate and colonies were counted 10 days later by Coomassie staining. For anchorage independent colony assays, 1000 cells were seeded in each well of a 6-well plate in media containing 0.35% low-melting point agarose and colonies were counted 3 weeks later by crystal violet staining. The PCR primers used to amplify HH barcodes from genomic DNA samples are JH353F 5′-[…]-3′ and HHR2L 5′-[…]-3′. […] Paclitaxel, nocodazole, MG132 and monastrol were from Sigma-Aldrich. RO-3306 was from EMD Calbiochem. Bortezomib was from LC Laboratories. Rabbit antibody against phospho-PLK1 T210 was from Abcam. Rabbit phosphoH3-S10 antibody was from Covance. Mouse antibodies against PLK1, K-Ras and tubulin were from Santa Cruz Biotechnologies. Rabbit anti-COPS4 antibody was from Bethyl Laboratories.

SMILES | Cell cycle accumulation of Ras Mut cells by FACS [1] | Fitness of PI3K Mut cells vs PI3K WT cells [2] | G2/M arrest, Ras Mut vs Ras WT cells ([3]; DLD-1) | Prometaphase arrest of mitotic cells [3] | Viability/fitness of Ras Mut cells after transient treatment [4] | Fitness of Ras Mut cells relative to Ras WT cells (synthetic lethality with mutant Ras) [4] | Fitness of PI3K Mut cells vs PI3K WT cells [5] | Fitness of Ras Mut cells relative to Ras WT cells (synthetic lethality with mutant Ras) [6] | G2/M accumulation, cell cycle distribution ([3]; DLD-1, 25 nM or 50 nM BI-2536 for one day) | Sub-G1 population (cell death) ([3]; DLD-1, prolonged treatment with BI-2536 (25 nM) for 2 days) | Completion of mitosis (mitotic exit) after nocodazole release ([3]; DLD-1 Ras Mut cells) | Completion of mitosis (mitotic exit) after nocodazole release ([3]; DLD-1 Ras WT cells) | Mitotic entry after release from RO-3306 into nocodazole ([3]; DLD-1 Ras WT or Ras Mut, synthetic lethal concentration of BI-2536, 1 hour) | Concentration at which the synthetic lethal effect is strongest ([4]; DLD-1 cells) | Toxicity by CellTiter GLO cell viability (DLD-1 Ras Mut cells)
CC(C)C[C@@H](C=O)NC(=O)[C@H](CC(C)C)NC(=O)[C@H](CC(C)C)NC(=O)OCc1ccccc1 [MG132] (Cbz-Leu-Leu-Leu-aldehyde) | preferentially induce the accumulation of Ras Mut HCT116 cells | more resistant to these inhibitors relative to DLD-1 PI3K WT cells | more sensitive | more profound prometaphase block of the Ras Mut cells | sufficient to selectively impair the viability of Ras Mut cells | selectively decreased the fitness of DLD-1 Ras Mut cells in a dose dependent fashion | very little difference | selectively decrease the fitness of HCT116 Ras Mut cells | – | – | – | – | – | – | –
CC(=O)O[C@H]1C(=O)[C@@]2(C)[C@H]([C@H](OC(=O)c3ccccc3)[C@]3(O)C[C@H](OC(=O)[C@H](O)[C@@H](NC(=O)c4ccccc4)c4ccccc4)C(C)=C1C3(C)C)[C@]1(OC(C)=O)CO[C@@H]1C[C@@H]2O [paclitaxel] | – | more resistant to these inhibitors relative to DLD-1 PI3K WT cells | strong G2/M arrest in Ras Mut cells but not in Ras WT cells | striking pro-metaphase block in the Ras mutant cells | sufficient to selectively impair the viability of Ras Mut cells | increased sensitivity | very little difference | increased sensitivity | – | – | – | – | – | – | –
CC(C)C[C@H](NC(=O)[C@H](Cc1ccccc1)NC(=O)c1cnccn1)B(O)O [bortezomib] | preferentially induce the accumulation of Ras Mut HCT116 cells | more resistant to these inhibitors relative to DLD-1 PI3K WT cells | more sensitive | more profound prometaphase block of the Ras Mut cells | sufficient to selectively impair the viability of Ras Mut cells | selectively decreased the fitness of DLD-1 Ras Mut cells in a dose dependent fashion | very little difference | selectively decrease the fitness of HCT116 Ras Mut cells | – | – | – | – | – | – | –
CC[C@@H]1C(=O)N(C)c2cnc(Nc3ccc(C(=O)NC4CCN(C)CC4)cc3OC)nc2N1C1CCCC1 [BI-2536] | – | more resistant to these inhibitors relative to DLD-1 PI3K WT cells | – | strong block of Ras Mut cells in prometaphase | sufficient to selectively impair the viability of Ras Mut cells | – | very little difference | – | Ras Mut cells show a profound G2/M accumulation | elevated sub-G1 population in Ras Mut cells | profound delay in mitotic exit in Ras Mut cells | minimal effect on Ras WT cells | unaffected | approximately 25 nM | enhanced toxicity in DLD-1 Ras Mut cells
N#CC(=C(/N)Sc1ccccc1N)/C(C#N)=C(\N)Sc1ccccc1N [U0126] | – | – | – | – | – | At no concentration of these drugs was selective toxicity towards Ras Mut cells compared to Ras WT cells observed | – | – | – | – | – | – | – | – | –
COC(=O)Nc1nc2ccc(C(=O)c3cccs3)cc2[nH]1 [nocodazole] | – | – | – | – | – | no synthetic lethality with mutant Ras | – | no synthetic lethality with mutant Ras | – | – | – | – | – | – | –
